For four compounds, inhibition results are on record in ChEMBL document CHEMBL3758163, “Extended structure-activity study of thienopyrimidine-based EGFR inhibitors with evaluation of drug-like properties” (Eur J Med Chem, 2016).

The inhibition is the change of the read-out against control, counted positive when it falls.

Chain of Vascular endothelial growth factor receptor 3 (Homo sapiens) (P35916 whole entry): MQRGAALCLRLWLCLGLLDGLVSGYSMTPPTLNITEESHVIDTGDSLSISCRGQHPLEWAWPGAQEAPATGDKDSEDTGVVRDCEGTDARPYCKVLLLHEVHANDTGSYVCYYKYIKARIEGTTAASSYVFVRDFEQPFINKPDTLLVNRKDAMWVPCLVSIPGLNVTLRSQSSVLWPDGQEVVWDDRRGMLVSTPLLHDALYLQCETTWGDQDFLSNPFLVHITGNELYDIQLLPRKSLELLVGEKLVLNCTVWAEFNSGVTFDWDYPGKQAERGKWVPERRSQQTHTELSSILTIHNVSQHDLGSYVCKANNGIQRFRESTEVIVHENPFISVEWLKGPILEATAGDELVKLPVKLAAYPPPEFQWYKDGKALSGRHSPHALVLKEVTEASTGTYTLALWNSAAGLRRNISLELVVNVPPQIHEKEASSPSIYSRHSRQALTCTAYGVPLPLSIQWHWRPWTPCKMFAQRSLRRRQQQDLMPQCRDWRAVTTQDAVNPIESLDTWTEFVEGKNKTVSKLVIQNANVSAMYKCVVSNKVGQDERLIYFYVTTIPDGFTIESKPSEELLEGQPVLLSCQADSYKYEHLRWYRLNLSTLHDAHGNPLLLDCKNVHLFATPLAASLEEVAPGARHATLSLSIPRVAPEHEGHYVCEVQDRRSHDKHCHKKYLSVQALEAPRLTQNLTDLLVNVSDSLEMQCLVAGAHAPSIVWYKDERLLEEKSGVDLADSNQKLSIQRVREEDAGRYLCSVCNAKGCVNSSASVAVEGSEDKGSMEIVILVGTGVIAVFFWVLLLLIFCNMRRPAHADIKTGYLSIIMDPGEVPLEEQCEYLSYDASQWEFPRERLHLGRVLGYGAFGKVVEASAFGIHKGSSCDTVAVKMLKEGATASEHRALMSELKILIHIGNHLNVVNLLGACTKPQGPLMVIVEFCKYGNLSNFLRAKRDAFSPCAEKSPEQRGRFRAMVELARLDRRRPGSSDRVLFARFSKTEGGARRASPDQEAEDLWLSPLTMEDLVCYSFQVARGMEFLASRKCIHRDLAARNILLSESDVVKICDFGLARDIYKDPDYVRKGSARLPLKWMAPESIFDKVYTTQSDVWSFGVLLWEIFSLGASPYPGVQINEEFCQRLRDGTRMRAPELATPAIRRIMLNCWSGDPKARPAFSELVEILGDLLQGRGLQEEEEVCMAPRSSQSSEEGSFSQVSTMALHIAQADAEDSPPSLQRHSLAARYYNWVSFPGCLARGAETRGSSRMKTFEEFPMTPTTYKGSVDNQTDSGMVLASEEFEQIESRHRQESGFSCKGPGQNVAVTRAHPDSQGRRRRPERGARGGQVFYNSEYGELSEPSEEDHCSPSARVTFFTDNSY

One assay concerns the target Vascular endothelial growth factor receptor 3 (Homo sapiens) (UniProt P35916). The assay can be described thus: Inhibition of FLT4 (unknown origin) at 500 nM.
As for `COc1ccc(C(=O)NCCN(C)C)cc1-c1cc2c(N[C@H](C)c3ccccc3)ncnc2s1`, the inhibition turned out to be 3%.
Take `COc1cc(CO)ccc1-c1cc2c(N[C@H](CO)c3ccccc3)ncnc2s1`: the inhibition stood at 1%.
Consider `COc1cc(CO)ccc1-c1cc2c(Nc3ccccc3)ncnc2s1`, for which the inhibition is 9%.
Same read-out and setting: then `COc1cc(CO)ccc1-c1cc2c(N[C@H](C)c3ccccc3)ncnc2s1`, with 3%.

Another assay has as its target Mast/stem cell growth factor receptor Kit (Homo sapiens) (UniProt P10721). The assay is described as follows: Inhibition of KIT (unknown origin) at 500 nM.
Consider `COc1ccc(C(=O)NCCN(C)C)cc1-c1cc2c(N[C@H](C)c3ccccc3)ncnc2s1`, for which the inhibition was -1%.
On the same count and under the same terms, then `COc1cc(CO)ccc1-c1cc2c(N[C@H](CO)c3ccccc3)ncnc2s1`, with 1%; and `COc1cc(CO)ccc1-c1cc2c(Nc3ccccc3)ncnc2s1`, with 11%.
As for `COc1cc(CO)ccc1-c1cc2c(N[C@H](C)c3ccccc3)ncnc2s1`, the inhibition was found to be 7%.

In the next assay the target is Vascular endothelial growth factor receptor 2 (Homo sapiens) (UniProt P35968). The assay is described as follows: Inhibition of KDR (unknown origin) at 500 nM.
Chain of Vascular endothelial growth factor receptor 2 (Homo sapiens) (P35968 whole entry): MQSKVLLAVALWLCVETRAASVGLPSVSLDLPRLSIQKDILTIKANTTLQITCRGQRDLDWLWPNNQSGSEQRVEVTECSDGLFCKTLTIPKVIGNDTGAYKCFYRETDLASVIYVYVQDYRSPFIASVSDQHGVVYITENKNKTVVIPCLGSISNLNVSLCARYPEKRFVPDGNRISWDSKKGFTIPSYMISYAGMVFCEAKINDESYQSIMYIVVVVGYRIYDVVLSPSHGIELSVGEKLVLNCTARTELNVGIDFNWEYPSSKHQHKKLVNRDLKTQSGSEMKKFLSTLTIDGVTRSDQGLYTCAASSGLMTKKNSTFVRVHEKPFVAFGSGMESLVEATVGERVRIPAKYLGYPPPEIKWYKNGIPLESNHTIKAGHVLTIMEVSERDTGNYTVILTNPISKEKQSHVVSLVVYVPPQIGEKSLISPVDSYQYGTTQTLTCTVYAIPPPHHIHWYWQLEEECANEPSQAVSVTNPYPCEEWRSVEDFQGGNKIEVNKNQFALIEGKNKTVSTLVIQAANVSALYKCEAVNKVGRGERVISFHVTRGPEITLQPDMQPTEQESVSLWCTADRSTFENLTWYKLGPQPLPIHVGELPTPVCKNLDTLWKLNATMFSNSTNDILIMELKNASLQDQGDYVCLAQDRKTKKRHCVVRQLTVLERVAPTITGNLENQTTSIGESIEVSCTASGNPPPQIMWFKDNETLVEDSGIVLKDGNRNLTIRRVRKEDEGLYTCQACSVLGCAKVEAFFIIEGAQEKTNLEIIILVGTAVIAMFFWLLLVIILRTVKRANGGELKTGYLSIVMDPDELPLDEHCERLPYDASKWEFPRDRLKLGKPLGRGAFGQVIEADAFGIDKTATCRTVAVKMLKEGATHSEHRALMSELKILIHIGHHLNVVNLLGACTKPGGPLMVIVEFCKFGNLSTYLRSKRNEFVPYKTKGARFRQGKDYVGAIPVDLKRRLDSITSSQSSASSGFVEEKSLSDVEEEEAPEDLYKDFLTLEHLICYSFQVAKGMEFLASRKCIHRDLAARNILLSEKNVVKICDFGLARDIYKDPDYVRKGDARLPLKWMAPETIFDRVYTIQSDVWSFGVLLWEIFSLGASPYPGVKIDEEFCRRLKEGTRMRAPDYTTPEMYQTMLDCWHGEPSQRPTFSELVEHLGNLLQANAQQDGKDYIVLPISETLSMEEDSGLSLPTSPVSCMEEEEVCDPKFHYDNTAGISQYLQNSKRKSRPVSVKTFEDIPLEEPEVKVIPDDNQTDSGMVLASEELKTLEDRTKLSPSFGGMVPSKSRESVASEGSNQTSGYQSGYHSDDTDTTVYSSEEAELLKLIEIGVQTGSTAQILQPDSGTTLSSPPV
On to `COc1ccc(C(=O)NCCN(C)C)cc1-c1cc2c(N[C@H](C)c3ccccc3)ncnc2s1`, for which the inhibition was found to be 10%.
Same read-out and setting: the figure for `COc1cc(CO)ccc1-c1cc2c(N[C@H](CO)c3ccccc3)ncnc2s1` is 12%; for `COc1cc(CO)ccc1-c1cc2c(Nc3ccccc3)ncnc2s1` it is 10%.
The same measure, in the same setting: then `COc1cc(CO)ccc1-c1cc2c(N[C@H](C)c3ccccc3)ncnc2s1`, with 12%.

For a further assay, the target named is Tyrosine-protein kinase SYK (Homo sapiens) (UniProt P43405). The assay can be described thus: Inhibition of SYK (unknown origin) at 500 nM.
With `COc1ccc(C(=O)NCCN(C)C)cc1-c1cc2c(N[C@H](C)c3ccccc3)ncnc2s1`, the inhibition was found to be 2%.
Same read-out and setting: the figure for `COc1cc(CO)ccc1-c1cc2c(N[C@H](CO)c3ccccc3)ncnc2s1` is 10%; for `COc1cc(CO)ccc1-c1cc2c(Nc3ccccc3)ncnc2s1` it is 38%; for `COc1cc(CO)ccc1-c1cc2c(N[C@H](C)c3ccccc3)ncnc2s1` it is 8%.

For a further assay, the target named is Tyrosine-protein kinase Lyn (Homo sapiens) (UniProt P07948). The assay is described as follows: Inhibition of LYN A (unknown origin) at 500 nM.
With `COc1ccc(C(=O)NCCN(C)C)cc1-c1cc2c(N[C@H](C)c3ccccc3)ncnc2s1`, the inhibition was determined as 57%.
In the case of `COc1cc(CO)ccc1-c1cc2c(N[C@H](CO)c3ccccc3)ncnc2s1`, the inhibition turned out to be 40%.
`COc1cc(CO)ccc1-c1cc2c(Nc3ccccc3)ncnc2s1`: the inhibition came to 24%.
As to `COc1cc(CO)ccc1-c1cc2c(N[C@H](C)c3ccccc3)ncnc2s1`, the inhibition turned out to be 61%.

The target of another assay is Tyrosine-protein kinase Fyn (Homo sapiens) (UniProt P06241). The assay is described as follows: Inhibition of FYN (unknown origin) at 500 nM.
Chain of Tyrosine-protein kinase Fyn (Homo sapiens) (P06241 2-537 limits assumed): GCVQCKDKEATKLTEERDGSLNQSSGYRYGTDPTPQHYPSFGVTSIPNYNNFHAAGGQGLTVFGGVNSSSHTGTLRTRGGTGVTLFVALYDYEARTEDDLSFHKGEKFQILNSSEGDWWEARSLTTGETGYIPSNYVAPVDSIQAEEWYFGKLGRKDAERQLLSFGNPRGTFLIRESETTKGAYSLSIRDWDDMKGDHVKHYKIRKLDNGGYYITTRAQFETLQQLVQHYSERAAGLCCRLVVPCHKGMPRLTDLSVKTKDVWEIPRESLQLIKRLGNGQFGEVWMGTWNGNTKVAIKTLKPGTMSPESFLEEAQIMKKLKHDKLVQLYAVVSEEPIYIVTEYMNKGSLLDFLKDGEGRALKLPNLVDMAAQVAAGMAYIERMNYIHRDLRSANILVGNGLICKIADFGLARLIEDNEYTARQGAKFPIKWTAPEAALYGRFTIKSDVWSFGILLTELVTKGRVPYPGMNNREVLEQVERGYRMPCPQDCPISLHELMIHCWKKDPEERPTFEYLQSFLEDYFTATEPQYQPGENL
Consider `COc1ccc(C(=O)NCCN(C)C)cc1-c1cc2c(N[C@H](C)c3ccccc3)ncnc2s1`, for which the inhibition came out at 8%.
Regarding `COc1cc(CO)ccc1-c1cc2c(N[C@H](CO)c3ccccc3)ncnc2s1`, the inhibition came out at 12%.
As to `COc1cc(CO)ccc1-c1cc2c(Nc3ccccc3)ncnc2s1`, the inhibition is 6%.
Still for that read-out and setting: then `COc1cc(CO)ccc1-c1cc2c(N[C@H](C)c3ccccc3)ncnc2s1`, with 1%.

The target of another assay is Hepatocyte growth factor receptor (Homo sapiens) (UniProt P08581). The assay can be described thus: Inhibition of MET (unknown origin) at 500 nM.
Chain of Hepatocyte growth factor receptor (Homo sapiens) (P08581 whole entry): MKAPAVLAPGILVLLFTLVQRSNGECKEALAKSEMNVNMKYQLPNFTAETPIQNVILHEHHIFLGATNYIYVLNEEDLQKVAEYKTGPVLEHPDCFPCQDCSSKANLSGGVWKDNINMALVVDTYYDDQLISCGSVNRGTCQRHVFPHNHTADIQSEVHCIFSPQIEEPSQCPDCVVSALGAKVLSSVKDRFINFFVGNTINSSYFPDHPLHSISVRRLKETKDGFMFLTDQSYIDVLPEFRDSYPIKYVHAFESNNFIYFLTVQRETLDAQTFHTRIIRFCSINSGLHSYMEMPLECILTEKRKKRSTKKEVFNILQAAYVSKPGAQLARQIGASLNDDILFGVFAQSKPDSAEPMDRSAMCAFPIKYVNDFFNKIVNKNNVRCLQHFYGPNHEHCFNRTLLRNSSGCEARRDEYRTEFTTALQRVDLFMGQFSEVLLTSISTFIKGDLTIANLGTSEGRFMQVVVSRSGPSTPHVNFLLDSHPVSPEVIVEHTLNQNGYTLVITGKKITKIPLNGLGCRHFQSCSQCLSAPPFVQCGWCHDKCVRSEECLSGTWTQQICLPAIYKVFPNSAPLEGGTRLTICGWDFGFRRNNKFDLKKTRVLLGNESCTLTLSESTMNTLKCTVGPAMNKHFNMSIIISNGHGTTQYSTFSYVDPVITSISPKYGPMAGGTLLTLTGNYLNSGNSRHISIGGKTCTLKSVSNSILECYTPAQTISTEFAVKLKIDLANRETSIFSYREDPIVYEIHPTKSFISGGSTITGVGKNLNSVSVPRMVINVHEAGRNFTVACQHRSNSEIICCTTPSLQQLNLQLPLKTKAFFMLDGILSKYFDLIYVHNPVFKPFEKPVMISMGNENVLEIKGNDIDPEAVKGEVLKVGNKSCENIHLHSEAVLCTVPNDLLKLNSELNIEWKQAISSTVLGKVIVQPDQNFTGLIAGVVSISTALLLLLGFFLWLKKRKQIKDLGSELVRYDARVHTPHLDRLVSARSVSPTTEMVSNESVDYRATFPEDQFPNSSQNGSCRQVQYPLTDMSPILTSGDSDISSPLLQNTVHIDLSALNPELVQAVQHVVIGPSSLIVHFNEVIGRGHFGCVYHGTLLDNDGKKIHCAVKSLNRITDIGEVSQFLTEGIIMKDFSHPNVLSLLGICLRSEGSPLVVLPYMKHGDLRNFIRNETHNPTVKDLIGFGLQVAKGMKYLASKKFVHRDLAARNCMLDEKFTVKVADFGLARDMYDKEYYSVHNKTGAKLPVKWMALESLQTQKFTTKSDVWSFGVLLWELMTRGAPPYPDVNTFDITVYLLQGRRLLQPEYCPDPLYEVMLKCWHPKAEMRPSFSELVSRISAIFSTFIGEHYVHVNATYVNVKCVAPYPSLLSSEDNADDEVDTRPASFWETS
With `COc1ccc(C(=O)NCCN(C)C)cc1-c1cc2c(N[C@H](C)c3ccccc3)ncnc2s1`, the inhibition is -9%.
For the compound `COc1cc(CO)ccc1-c1cc2c(N[C@H](CO)c3ccccc3)ncnc2s1`, the inhibition came to 3%.
Take `COc1cc(CO)ccc1-c1cc2c(Nc3ccccc3)ncnc2s1`: the inhibition turned out to be 7%.
As for `COc1cc(CO)ccc1-c1cc2c(N[C@H](C)c3ccccc3)ncnc2s1`, the inhibition turned out to be 15%.

For another assay, the target named is Tyrosine-protein kinase Lyn (Homo sapiens) (UniProt P07948). The assay is described as follows: Inhibition of LYN B (unknown origin) at 500 nM.
With `COc1ccc(C(=O)NCCN(C)C)cc1-c1cc2c(N[C@H](C)c3ccccc3)ncnc2s1`, the inhibition came out at 62%.
The same measure, in the same setting: the figure for `COc1cc(CO)ccc1-c1cc2c(N[C@H](CO)c3ccccc3)ncnc2s1` is 56%.
On the same count and under the same terms, then `COc1cc(CO)ccc1-c1cc2c(Nc3ccccc3)ncnc2s1`, with 22%.
On the same count and under the same terms, the figure for `COc1cc(CO)ccc1-c1cc2c(N[C@H](C)c3ccccc3)ncnc2s1` is 57%.

In the next assay the target is Receptor tyrosine-protein kinase erbB-4 (Homo sapiens) (UniProt Q15303). The assay is described as follows: Inhibition of ERBB4 (unknown origin) at 500 nM.
Consider `COc1ccc(C(=O)NCCN(C)C)cc1-c1cc2c(N[C@H](C)c3ccccc3)ncnc2s1`, for which the inhibition worked out at 46%.
As to `COc1cc(CO)ccc1-c1cc2c(N[C@H](CO)c3ccccc3)ncnc2s1`, the inhibition came out at 63%.
On the same count and under the same terms, then `COc1cc(CO)ccc1-c1cc2c(Nc3ccccc3)ncnc2s1`, with 22%; and `COc1cc(CO)ccc1-c1cc2c(N[C@H](C)c3ccccc3)ncnc2s1`, with 30%.

The target of the next assay is T1, Aurora kinase A (Homo sapiens) (UniProt O14965).
T1 sequence (whole entry): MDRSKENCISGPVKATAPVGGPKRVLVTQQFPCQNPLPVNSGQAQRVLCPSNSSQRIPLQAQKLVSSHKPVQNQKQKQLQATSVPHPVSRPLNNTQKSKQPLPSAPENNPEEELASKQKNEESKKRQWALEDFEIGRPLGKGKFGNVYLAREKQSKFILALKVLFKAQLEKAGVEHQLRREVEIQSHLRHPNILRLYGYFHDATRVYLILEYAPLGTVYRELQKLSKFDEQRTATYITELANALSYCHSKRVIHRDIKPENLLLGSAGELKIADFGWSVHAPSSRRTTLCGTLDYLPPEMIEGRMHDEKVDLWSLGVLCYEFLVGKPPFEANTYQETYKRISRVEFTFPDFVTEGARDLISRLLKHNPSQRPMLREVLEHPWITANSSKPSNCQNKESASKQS
The assay can be described thus: Inhibition of AURKA (unknown origin) at 500 nM.
Consider `COc1ccc(C(=O)NCCN(C)C)cc1-c1cc2c(N[C@H](C)c3ccccc3)ncnc2s1`, for which the inhibition is -4%.
For `COc1cc(CO)ccc1-c1cc2c(N[C@H](CO)c3ccccc3)ncnc2s1`, the inhibition amounted to 5%.
Turning to `COc1cc(CO)ccc1-c1cc2c(Nc3ccccc3)ncnc2s1`, the inhibition was -3%.
For `COc1cc(CO)ccc1-c1cc2c(N[C@H](C)c3ccccc3)ncnc2s1`, the inhibition worked out at 1%.

The next assay deals with cAMP-dependent protein kinase catalytic subunit alpha (Homo sapiens) (UniProt P17612). The assay can be described thus: Inhibition of PRKACA (unknown origin) at 500 nM.
For `COc1ccc(C(=O)NCCN(C)C)cc1-c1cc2c(N[C@H](C)c3ccccc3)ncnc2s1`, the inhibition came out at 9%.
The same measure, in the same setting: the figure for `COc1cc(CO)ccc1-c1cc2c(N[C@H](CO)c3ccccc3)ncnc2s1` is 1%; for `COc1cc(CO)ccc1-c1cc2c(Nc3ccccc3)ncnc2s1` it is 2%.
In the case of `COc1cc(CO)ccc1-c1cc2c(N[C@H](C)c3ccccc3)ncnc2s1`, the inhibition was found to be 2%.

The target of a further assay is T2, Serine/threonine-protein kinase Nek1 (Homo sapiens) (UniProt Q96PY6).
T2 sequence (whole entry): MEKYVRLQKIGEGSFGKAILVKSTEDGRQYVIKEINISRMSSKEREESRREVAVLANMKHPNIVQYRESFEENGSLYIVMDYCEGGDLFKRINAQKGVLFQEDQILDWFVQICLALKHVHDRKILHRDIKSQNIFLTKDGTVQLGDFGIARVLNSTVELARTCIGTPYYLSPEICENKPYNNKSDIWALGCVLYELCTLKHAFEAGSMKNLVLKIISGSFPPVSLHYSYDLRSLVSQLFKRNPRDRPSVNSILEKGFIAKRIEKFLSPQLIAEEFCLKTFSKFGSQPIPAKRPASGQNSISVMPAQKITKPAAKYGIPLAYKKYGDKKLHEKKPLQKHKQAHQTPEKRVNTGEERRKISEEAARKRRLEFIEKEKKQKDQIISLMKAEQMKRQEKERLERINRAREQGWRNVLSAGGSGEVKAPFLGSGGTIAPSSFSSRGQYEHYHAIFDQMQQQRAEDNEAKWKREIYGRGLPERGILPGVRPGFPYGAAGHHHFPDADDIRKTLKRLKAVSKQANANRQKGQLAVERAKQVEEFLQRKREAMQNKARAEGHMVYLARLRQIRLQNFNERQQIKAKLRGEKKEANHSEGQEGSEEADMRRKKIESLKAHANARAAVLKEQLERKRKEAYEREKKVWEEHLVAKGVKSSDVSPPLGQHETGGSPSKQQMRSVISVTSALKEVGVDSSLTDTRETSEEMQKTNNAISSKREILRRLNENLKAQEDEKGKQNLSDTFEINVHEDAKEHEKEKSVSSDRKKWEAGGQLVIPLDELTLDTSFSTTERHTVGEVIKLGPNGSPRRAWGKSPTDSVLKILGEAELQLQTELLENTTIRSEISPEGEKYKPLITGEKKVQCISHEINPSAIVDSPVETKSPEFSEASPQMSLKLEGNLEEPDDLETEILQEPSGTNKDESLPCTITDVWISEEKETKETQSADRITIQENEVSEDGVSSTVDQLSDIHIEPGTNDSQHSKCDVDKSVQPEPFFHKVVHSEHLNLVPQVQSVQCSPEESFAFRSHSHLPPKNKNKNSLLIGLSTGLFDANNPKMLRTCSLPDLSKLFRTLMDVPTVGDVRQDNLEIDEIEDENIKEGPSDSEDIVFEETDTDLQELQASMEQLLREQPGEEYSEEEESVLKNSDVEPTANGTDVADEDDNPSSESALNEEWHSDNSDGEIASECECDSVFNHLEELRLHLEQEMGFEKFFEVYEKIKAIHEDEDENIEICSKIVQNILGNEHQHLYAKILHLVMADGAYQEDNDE
The assay can be described thus: Inhibition of NEK1 (unknown origin) at 500 nM.
Regarding `COc1ccc(C(=O)NCCN(C)C)cc1-c1cc2c(N[C@H](C)c3ccccc3)ncnc2s1`, the inhibition was -4%.
In the case of `COc1cc(CO)ccc1-c1cc2c(N[C@H](CO)c3ccccc3)ncnc2s1`, the inhibition is 13%.
As to `COc1cc(CO)ccc1-c1cc2c(Nc3ccccc3)ncnc2s1`, the inhibition is -5%.
Still for that read-out and setting: the figure for `COc1cc(CO)ccc1-c1cc2c(N[C@H](C)c3ccccc3)ncnc2s1` is 1%.

A further assay addresses T3, Inhibitor of nuclear factor kappa-B kinase subunit beta (Homo sapiens) (UniProt O14920).
T3 sequence (whole entry): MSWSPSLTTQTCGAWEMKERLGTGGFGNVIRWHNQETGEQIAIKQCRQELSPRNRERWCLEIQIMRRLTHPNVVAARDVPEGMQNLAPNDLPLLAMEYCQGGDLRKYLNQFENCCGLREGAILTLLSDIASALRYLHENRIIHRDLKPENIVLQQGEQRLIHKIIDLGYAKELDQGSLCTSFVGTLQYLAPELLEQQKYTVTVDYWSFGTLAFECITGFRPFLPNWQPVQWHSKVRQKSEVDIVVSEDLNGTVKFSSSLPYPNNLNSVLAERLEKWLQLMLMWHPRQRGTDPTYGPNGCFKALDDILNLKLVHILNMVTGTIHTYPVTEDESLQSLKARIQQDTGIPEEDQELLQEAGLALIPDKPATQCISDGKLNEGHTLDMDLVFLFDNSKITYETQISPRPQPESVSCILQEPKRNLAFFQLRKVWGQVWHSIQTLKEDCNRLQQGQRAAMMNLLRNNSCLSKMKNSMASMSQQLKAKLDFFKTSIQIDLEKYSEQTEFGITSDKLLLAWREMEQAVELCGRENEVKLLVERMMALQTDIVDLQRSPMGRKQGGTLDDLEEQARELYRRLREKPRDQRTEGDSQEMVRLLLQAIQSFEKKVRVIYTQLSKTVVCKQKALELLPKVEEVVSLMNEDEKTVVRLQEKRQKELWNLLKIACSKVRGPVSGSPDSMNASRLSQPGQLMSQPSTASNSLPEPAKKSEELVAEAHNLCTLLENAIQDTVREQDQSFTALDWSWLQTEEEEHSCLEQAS
The assay is described as follows: Inhibition of IKBKB (unknown origin) at 500 nM.
Regarding `COc1ccc(C(=O)NCCN(C)C)cc1-c1cc2c(N[C@H](C)c3ccccc3)ncnc2s1`, the inhibition was 3%.
In the case of `COc1cc(CO)ccc1-c1cc2c(N[C@H](CO)c3ccccc3)ncnc2s1`, the inhibition was 1%.
On the same count and under the same terms, the figure for `COc1cc(CO)ccc1-c1cc2c(Nc3ccccc3)ncnc2s1` is 4%; for `COc1cc(CO)ccc1-c1cc2c(N[C@H](C)c3ccccc3)ncnc2s1` it is 10%.
